In patent US7074806B2, “Glucocorticoid mimetics, methods of making them, pharmaceutical compositions, and uses thereof” (Boehringer Ingelheim Pharmaceuticals, Inc., priority 2002, dated 2006):

Target: T1, human glucocorticoid receptor (GR) complex (Homo sapiens, UniProt P04150)
T1 construct: made in house; host or cells: insect expression system (baculovirus lysate)
T1 sequence (P04150 1-777): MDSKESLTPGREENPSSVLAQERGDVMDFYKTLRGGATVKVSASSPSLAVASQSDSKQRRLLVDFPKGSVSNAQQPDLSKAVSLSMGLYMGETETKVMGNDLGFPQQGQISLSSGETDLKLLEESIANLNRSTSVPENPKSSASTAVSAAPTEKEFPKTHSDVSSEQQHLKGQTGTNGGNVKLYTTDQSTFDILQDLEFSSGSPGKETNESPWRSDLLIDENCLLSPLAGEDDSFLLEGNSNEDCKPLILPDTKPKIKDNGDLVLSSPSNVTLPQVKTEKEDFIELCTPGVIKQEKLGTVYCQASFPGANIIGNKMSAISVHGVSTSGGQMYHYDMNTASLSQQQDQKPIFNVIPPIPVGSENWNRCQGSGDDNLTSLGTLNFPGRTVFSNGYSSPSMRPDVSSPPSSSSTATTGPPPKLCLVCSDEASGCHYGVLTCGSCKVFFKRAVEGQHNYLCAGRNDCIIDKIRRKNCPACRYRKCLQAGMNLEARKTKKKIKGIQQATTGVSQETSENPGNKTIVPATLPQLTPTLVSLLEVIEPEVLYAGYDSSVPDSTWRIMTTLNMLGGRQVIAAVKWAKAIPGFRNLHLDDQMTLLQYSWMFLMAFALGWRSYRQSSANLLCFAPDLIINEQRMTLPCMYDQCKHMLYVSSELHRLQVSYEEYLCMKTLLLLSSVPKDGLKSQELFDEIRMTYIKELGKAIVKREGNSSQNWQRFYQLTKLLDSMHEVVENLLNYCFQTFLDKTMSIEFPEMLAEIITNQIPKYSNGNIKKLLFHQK
Experiment: Glucocorticoid Receptor Competitive Binding Assay (fluorescence polarization)
Details: competition with TAMRA-labeled dexamethasone for binding to GR; result in words only
Protocol: Compounds of the invention were evaluated for binding to the steroid receptor by a fluorescence polarization competitive binding assay. Detailed descriptions for preparation of recombinant glucocorticoid receptor (GR) complex used in the assay is described in Goldrick et al., U.S. provisional application No. 60/291,877, filed May 18, 2001 (corresponding to Goldrick et al., U.S. nonprovisional application No. 10/151,133, filed May 20, 2002, both incorporated herein by reference in their entirety. Preparation of the tetramethyl rhodamine (TAMRA)-labeled dexamethasone probe was accomplished using a standard literature procedure (M. Pons et al., J. Steroid Biochem., 1985, 22, pp. 267–273).
A. Glucocorticoid Receptor Competitive Binding Assay
Step 1. Characterization of the Fluorescent Probe
The wavelengths for maximum excitation and emission of the fluorescent probe should first be measured. An example of such a probe is rhodamine (TAMRA)-labeled dexamethasone.
The affinity of the probe for the steroid receptor was then determined in a titration experiment. The fluorescence polarization value of the probe in assay buffer was measured on an SLM-8100 fluorometer using the excitation and emission maximum values described above. Aliquots of expression vector lysate were added and fluorescence polarization was measured after each addition until no further change in polarization value was observed. Non-linear least squares regression analysis was used to calculate the dissociation constant of the probe from the polarization values obtained for lysate binding to the probe.
Step 2. Screening for Inhibitors of Probe Binding
This assay uses fluorescence polarization (FP) to quantitate the ability of test compounds to compete with tetramethyl rhodamine (TAMRA)-labeled dexamethasone for binding to a human glucocorticoid receptor (GR) complex prepared from an insect expression system. The assay buffer was: 10 mM TES, 50 mM KCl, 20 mM Na2MoO4.2H2O, 1.5 mM EDTA, 0.04% w/v CHAPS, 10% v/v glycerol, 1 mM dithiothreitol, pH 7.4. Test compounds were dissolved to 1 mM in neat DMSO and then further diluted to 10×assay concentration in assay buffer supplemented with 10% v/v DMSO. Test compounds were serially diluted at 10×assay concentrations in 10% DMSO-containing buffer in 96-well polypropylene plates. Binding reaction mixtures were prepared in 96-well black Dynex microtiter plates by sequential addition of the following assay components to each well: […] of 10×test compound solution, 85 μL of GR-containing baculovirus lysate diluted 1:170 in assay buffer, and 50 μL of 15 nM TAMRA-labeled dexamethasone. Positive controls were reaction mixtures containing no test compound; negative controls (blanks) were reaction mixtures containing 0.7 μM to 2 μM dexamethasone. The binding reactions were incubated for 1 hour at room temperature and then read for fluorescence polarization in the LJL Analyst set to 550 nm excitation and 580 nm emission, with the Rhodamine 561 dichroic mirror installed. IC50 values were determined by iterative non-linear curve fitting of the FP signal data to a 4-parameter logistic equation.

For `COc1ccc(F)cc1C(C)(C)CC(N)(Cc1cc2ccccc2[nH]1)C(F)(F)F` (stereo not drawn) [Compound 2, 3-(5-Fluoro-2-methoxy-phenyl)-1-(1H-indol-2-ylmethyl)-3-methyl-1-trifluoromethyl-butylamine], the “activity in the GR binding assay” value was “demonstrated activity”.
With `COc1ccc(F)cc1C(C)(C)CC(N)(Cc1ccnc2ccccc12)C(F)(F)F` (stereo not drawn) [Compound 12, 3-(5-Fluoro-2-methoxy-phenyl)-3-methyl-1-quinolin-4-ylmethyl-1-trifluoromethyl-butylamine] the “activity in the GR binding assay” value was “demonstrated activity”.
With `CNC(Cc1ccnc2ccccc12)(CC(C)(C)c1cc(F)ccc1OC)C(F)(F)F` (stereo not drawn) [Compound 24, [3-(5-Fluoro-2-methoxy-phenyl)-3-methyl-1-quinolin-4-ylmethyl-1-trifluoromethyl-butyl]-methyl-amine] the “activity in the GR binding assay” value was “demonstrated activity”.
In the case of `CCCNC(Cc1ccnc2ccccc12)(CC(C)(C)c1cc(F)ccc1OC)C(F)(F)F` (stereo not drawn) [Compound 26, [3-(5-Fluoro-2-methoxy-phenyl)-3-methyl-1-quinolin-4-ylmethyl-1-trifluoromethyl-butyl]-propyl-amine], the “activity in the GR binding assay” value is reported as “demonstrated activity”.
In the case of `COc1ccc(F)cc1C(C)(C)CC(Cc1ccnc2ccccc12)(NCC(C)C)C(F)(F)F` (stereo not drawn) [Compound 27, [3-(5-Fluoro-2-methoxy-phenyl)-3-methyl-1-quinolin-4-ylmethyl-1-trifluoromethyl-butyl]-isobutyl-amine], the “activity in the GR binding assay” value is reported as “demonstrated activity”.
For `CCCCNC(Cc1ccnc2ccccc12)(CC(C)(C)c1cc(F)ccc1OC)C(F)(F)F` (stereo not drawn) [Compound 28, Butyl-[3-(5-fluoro-2-methoxy-phenyl)-3-methyl-1-quinolin-4-ylmethyl-1-trifluoromethyl-butyl]-amine], the “activity in the GR binding assay” value was “demonstrated activity”.
